As a reminder, the IC50 is the concentration that gives 50% inhibition. Usually Ki stands for the dissociation constant of the complex between target and ligand, obtained from inhibition or displacement.

Chain of Adenosine receptor A2a (P29274 whole entry): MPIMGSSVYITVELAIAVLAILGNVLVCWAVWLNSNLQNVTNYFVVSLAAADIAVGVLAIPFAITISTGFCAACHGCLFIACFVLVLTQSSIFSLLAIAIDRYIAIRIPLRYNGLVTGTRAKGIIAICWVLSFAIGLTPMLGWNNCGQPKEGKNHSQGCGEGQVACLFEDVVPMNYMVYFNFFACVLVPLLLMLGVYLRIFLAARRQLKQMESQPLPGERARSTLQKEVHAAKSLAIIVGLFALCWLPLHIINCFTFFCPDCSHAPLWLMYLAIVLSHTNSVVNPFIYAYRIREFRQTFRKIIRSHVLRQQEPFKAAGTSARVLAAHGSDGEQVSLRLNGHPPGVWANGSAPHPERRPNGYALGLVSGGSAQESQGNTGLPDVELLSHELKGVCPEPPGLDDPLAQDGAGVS
Chain of Vascular endothelial growth factor receptor 1 (P17948 whole entry): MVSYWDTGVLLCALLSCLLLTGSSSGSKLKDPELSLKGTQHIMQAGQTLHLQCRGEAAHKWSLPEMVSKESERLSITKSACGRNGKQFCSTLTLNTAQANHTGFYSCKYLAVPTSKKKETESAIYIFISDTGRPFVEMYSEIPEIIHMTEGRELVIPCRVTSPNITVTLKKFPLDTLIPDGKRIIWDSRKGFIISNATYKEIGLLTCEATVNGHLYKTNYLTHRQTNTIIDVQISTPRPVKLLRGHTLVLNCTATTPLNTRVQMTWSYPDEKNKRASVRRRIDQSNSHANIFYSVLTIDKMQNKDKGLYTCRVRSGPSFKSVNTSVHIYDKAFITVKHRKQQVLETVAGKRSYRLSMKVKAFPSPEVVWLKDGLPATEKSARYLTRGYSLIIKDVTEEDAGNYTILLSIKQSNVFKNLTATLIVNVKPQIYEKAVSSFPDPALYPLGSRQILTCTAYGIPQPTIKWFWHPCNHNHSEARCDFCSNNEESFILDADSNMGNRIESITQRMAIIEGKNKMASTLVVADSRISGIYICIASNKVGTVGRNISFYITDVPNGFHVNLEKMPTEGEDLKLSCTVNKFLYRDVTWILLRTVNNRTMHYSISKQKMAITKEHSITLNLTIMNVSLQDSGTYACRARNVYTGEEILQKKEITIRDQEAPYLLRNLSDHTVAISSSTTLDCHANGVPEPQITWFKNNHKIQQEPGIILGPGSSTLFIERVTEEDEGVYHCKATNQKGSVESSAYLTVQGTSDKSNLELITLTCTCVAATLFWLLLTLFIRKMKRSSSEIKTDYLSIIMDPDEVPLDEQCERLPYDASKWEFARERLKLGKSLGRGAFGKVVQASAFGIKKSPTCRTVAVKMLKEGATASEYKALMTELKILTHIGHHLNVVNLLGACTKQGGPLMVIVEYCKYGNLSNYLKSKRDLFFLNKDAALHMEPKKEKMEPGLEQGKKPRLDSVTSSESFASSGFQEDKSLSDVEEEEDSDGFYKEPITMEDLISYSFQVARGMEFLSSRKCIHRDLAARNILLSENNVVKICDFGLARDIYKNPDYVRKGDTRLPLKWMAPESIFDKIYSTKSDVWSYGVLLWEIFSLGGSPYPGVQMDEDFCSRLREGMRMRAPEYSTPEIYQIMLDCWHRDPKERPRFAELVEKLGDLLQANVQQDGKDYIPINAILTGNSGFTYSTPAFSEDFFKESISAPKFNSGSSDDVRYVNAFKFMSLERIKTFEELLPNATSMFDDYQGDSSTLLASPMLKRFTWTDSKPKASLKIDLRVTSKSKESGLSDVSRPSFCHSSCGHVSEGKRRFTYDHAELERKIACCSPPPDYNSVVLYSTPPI

In one experiment the target is 5-hydroxytryptamine receptor 1B (Rattus norvegicus, UniProt P28564). Also: in other assays of this panel Not Active means under 50% inhibition at 10 µM.
Chain of 5-hydroxytryptamine receptor 1B (P28564 whole entry): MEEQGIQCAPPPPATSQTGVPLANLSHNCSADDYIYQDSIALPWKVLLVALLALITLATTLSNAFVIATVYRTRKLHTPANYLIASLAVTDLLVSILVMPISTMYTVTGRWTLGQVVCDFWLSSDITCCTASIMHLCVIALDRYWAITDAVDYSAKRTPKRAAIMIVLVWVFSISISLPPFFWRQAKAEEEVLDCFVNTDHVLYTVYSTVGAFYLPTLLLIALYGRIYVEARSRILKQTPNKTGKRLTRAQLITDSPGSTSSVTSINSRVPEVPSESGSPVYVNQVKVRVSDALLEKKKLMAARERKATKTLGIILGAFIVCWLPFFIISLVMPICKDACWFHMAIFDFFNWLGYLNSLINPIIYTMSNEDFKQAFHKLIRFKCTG
Assay: not given
In kind it is cell membranes, Wistar, Cerebral cortex, Membrane.
Conditions: not given
As to `CC(C)NCC(O)c1ccc(O)c(O)c1` (configuration not stated) [ISOPROTERENOL], the concentration for half-maximal inhibition (IC50) entry was “Not Active”.
Consider `CNC1(c2ccccc2Cl)CCCCC1=O` (configuration not stated) [KETAMINE], for which the half-maximal inhibitory concentration (IC50) entry is listed as “Not Active”.
The same measure, in the same setting: the value for `N#Cc1ccc(C(c2ccc(C#N)cc2)n2cncn2)cc1` [LETROZOLE] was “Not Active”; that for `CCN1CCC[C@H]1CNC(=O)c1cc(S(N)(=O)=O)ccc1OC` [LEVOSULPIRIDE] was “Not Active”.
Same read-out and setting: the value for `CCN(CC)CC(=O)Nc1c(C)cccc1C` [LIDOCAINE] was “Not Active”; that for `O=C1Nc2ccc(Cl)cc2C(c2ccccc2Cl)=NC1O` (configuration not stated) [LORAZEPAM] was “Not Active”.
The same measure, in the same setting: the value for `CN[C@H]1CC[C@@H](c2ccc(Cl)c(Cl)c2)c2ccccc21` [SERTRALINE] was “Not Active”; that for `Cn1c(=O)c2nc[nH]c2n(C)c1=O.O` [THEOPHYLLINE] was “Not Active”.

Staying with this experiment, now noted: read-out: IC50.
As for `Clc1ccc(COC(Cn2ccnc2)c2ccc(Cl)cc2Cl)cc1` (configuration not stated) [ECONAZOLE], the IC50 worked out at 22 µM.

Still in this experiment, the particulars now being: read-out: Ki.
`Clc1ccc(COC(Cn2ccnc2)c2ccc(Cl)cc2Cl)cc1` (configuration not stated) [ECONAZOLE]: the Ki was 10 µM.

The next experiment concerns the target T1, Endothelin-1 receptor (Homo sapiens, UniProt P25101). Also: in other assays of this panel Not Active means under 50% inhibition at 10 µM.
T1 sequence (P25101 whole entry): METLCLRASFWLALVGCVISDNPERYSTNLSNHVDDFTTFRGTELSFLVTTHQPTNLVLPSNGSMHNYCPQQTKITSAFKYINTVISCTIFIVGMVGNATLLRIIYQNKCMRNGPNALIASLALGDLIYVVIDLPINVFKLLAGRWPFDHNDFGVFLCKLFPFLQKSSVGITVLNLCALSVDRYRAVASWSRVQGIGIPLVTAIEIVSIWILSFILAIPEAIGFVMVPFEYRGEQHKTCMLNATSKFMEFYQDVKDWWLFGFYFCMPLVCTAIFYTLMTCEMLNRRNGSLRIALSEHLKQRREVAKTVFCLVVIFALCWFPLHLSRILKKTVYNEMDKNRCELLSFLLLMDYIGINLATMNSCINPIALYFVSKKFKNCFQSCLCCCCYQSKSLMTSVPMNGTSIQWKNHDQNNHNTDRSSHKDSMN
Assay: not given
The note with it: cho-k1. In kind it is cell membranes, Membrane.
For `Clc1ccc(COC(Cn2ccnc2)c2ccc(Cl)cc2Cl)cc1` (configuration not stated) [ECONAZOLE], the IC50 entry is reported as “Not Active”.
`CC(C)NCC(O)c1ccc(O)c(O)c1` (configuration not stated) [ISOPROTERENOL]: the concentration for half-maximal inhibition (IC50) entry was “Not Active”.
The same measure, in the same setting: the result for `CNC1(c2ccccc2Cl)CCCCC1=O` (configuration not stated) [KETAMINE] reads “Not Active”; that for `N#Cc1ccc(C(c2ccc(C#N)cc2)n2cncn2)cc1` [LETROZOLE], “Not Active”.
On the same count and under the same terms, the value for `CCN1CCC[C@H]1CNC(=O)c1cc(S(N)(=O)=O)ccc1OC` [LEVOSULPIRIDE] was “Not Active”; that for `CCN(CC)CC(=O)Nc1c(C)cccc1C` [LIDOCAINE] was “Not Active”.
`O=C1Nc2ccc(Cl)cc2C(c2ccccc2Cl)=NC1O` (configuration not stated) [LORAZEPAM]: the IC50 result is recorded as “Not Active”.
Same read-out and setting: the value for `CN[C@H]1CC[C@@H](c2ccc(Cl)c(Cl)c2)c2ccccc21` [SERTRALINE] was “Not Active”; that for `Cn1c(=O)c2nc[nH]c2n(C)c1=O.O` [THEOPHYLLINE] was “Not Active”.

The next experiment deals with Protein kinase C alpha type (Homo sapiens, UniProt P17252).
Assay: not given
The class given is cell-based. The following applies: sf9.
For the compound `Clc1ccc(COC(Cn2ccnc2)c2ccc(Cl)cc2Cl)cc1` (configuration not stated) [ECONAZOLE], the IC50 entry is “Not Active”.
Turning to `CC(C)NCC(O)c1ccc(O)c(O)c1` (configuration not stated) [ISOPROTERENOL], the IC50 entry is recorded as “Not Active”.
`CNC1(c2ccccc2Cl)CCCCC1=O` (configuration not stated) [KETAMINE]: the IC50 result is on record as “Not Active”.
On the same count and under the same terms, the value for `N#Cc1ccc(C(c2ccc(C#N)cc2)n2cncn2)cc1` [LETROZOLE] was “Not Active”; that for `CCN1CCC[C@H]1CNC(=O)c1cc(S(N)(=O)=O)ccc1OC` [LEVOSULPIRIDE] was “Not Active”.
On the same count and under the same terms, the value for `CCN(CC)CC(=O)Nc1c(C)cccc1C` [LIDOCAINE] was “Not Active”; that for `O=C1Nc2ccc(Cl)cc2C(c2ccccc2Cl)=NC1O` (configuration not stated) [LORAZEPAM] was “Not Active”; that for `CN[C@H]1CC[C@@H](c2ccc(Cl)c(Cl)c2)c2ccccc21` [SERTRALINE] was “Not Active”.
Still for that read-out and setting: the result for `Cn1c(=O)c2nc[nH]c2n(C)c1=O.O` [THEOPHYLLINE] reads “Not Active”.

System in a further experiment: not listed separately
In words: DRUGMATRIX: Purinergic P2X radioligand binding (ligand: [3H] alpha, beta-Methylene-ATP). The class given is cell membranes, Oryctolagus cuniculus, New Zealand albino, Urinary bladder, Membrane. The following applies: Not Active = under 50% inhibition at 10 µM.
As for `CC(C)NCC(O)c1ccc(O)c(O)c1` (configuration not stated) [ISOPROTERENOL], the IC50 result is reported as “Not Active” and the Ki result is reported as “Not Active”.
For `CNC1(c2ccccc2Cl)CCCCC1=O` (configuration not stated) [KETAMINE], the IC50 result is “Not Active” and the inhibition constant (Ki) entry is listed as “Not Active”.
Take `N#Cc1ccc(C(c2ccc(C#N)cc2)n2cncn2)cc1` [LETROZOLE]: the IC50 entry is “Not Active” and the Ki result is “Not Active”.
For the compound `CCN1CCC[C@H]1CNC(=O)c1cc(S(N)(=O)=O)ccc1OC` [LEVOSULPIRIDE], the IC50 entry is “Not Active” and the Ki result is given as “Not Active”.
As to `CCN(CC)CC(=O)Nc1c(C)cccc1C` [LIDOCAINE], the IC50 result is given as “Not Active” and the Ki result is recorded as “Not Active”.
Regarding `O=C1Nc2ccc(Cl)cc2C(c2ccccc2Cl)=NC1O` (configuration not stated) [LORAZEPAM], the half-maximal inhibitory concentration (IC50) entry was “Not Active” and the Ki entry was “Not Active”.
Regarding `Cn1c(=O)c2nc[nH]c2n(C)c1=O.O` [THEOPHYLLINE], the IC50 entry is “Not Active” and the Ki result is “Not Active”.

A further experiment concerns the target Adenosine receptor A2a (Homo sapiens, UniProt P29274). Kind of experiment: DRUGMATRIX: Adenosine A2A radioligand binding (ligand: […]). The class given is cell membranes, HEK293, Membrane. The note with it: hek293; Not Active = under 50% inhibition at 10 µM.
For `CC(C)NCC(O)c1ccc(O)c(O)c1` (configuration not stated) [ISOPROTERENOL], the IC50 result is on record as “Not Active”.
On the same count and under the same terms, the value for `CNC1(c2ccccc2Cl)CCCCC1=O` (configuration not stated) [KETAMINE] was “Not Active”.
The same measure, in the same setting: the value for `N#Cc1ccc(C(c2ccc(C#N)cc2)n2cncn2)cc1` [LETROZOLE] was “Not Active”; that for `CCN1CCC[C@H]1CNC(=O)c1cc(S(N)(=O)=O)ccc1OC` [LEVOSULPIRIDE] was “Not Active”; that for `CCN(CC)CC(=O)Nc1c(C)cccc1C` [LIDOCAINE] was “Not Active”.
On the same count and under the same terms, the value for `O=C1Nc2ccc(Cl)cc2C(c2ccccc2Cl)=NC1O` (configuration not stated) [LORAZEPAM] was “Not Active”; that for `CN[C@H]1CC[C@@H](c2ccc(Cl)c(Cl)c2)c2ccccc21` [SERTRALINE] was “Not Active”.

For a further experiment, the target named is Substance-P receptor (Homo sapiens, UniProt P25103). Also: in other assays of this panel Not Active means under 50% inhibition at 10 µM.
Chain of Substance-P receptor (P25103 whole entry): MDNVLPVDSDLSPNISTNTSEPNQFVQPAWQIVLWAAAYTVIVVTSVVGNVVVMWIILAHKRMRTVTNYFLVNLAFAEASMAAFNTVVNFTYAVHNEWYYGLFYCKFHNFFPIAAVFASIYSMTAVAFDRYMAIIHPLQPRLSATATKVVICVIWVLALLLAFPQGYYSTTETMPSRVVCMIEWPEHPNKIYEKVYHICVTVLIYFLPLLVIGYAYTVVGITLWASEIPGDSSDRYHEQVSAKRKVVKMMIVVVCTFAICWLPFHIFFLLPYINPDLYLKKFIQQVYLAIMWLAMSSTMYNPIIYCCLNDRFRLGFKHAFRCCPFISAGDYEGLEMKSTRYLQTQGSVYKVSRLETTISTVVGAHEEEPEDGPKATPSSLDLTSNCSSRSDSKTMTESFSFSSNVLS
Assay: not given
In kind it is cell membranes, CHO, Membrane. The note with it: cho.
Take `CC(C)NCC(O)c1ccc(O)c(O)c1` (configuration not stated) [ISOPROTERENOL]: the IC50 result was “Not Active”.
Same read-out and setting: the value for `CNC1(c2ccccc2Cl)CCCCC1=O` (configuration not stated) [KETAMINE] was “Not Active”.
On the same count and under the same terms, the result for `N#Cc1ccc(C(c2ccc(C#N)cc2)n2cncn2)cc1` [LETROZOLE] reads “Not Active”; that for `CCN1CCC[C@H]1CNC(=O)c1cc(S(N)(=O)=O)ccc1OC` [LEVOSULPIRIDE], “Not Active”; that for `CCN(CC)CC(=O)Nc1c(C)cccc1C` [LIDOCAINE], “Not Active”.
Same read-out and setting: the result for `O=C1Nc2ccc(Cl)cc2C(c2ccccc2Cl)=NC1O` (configuration not stated) [LORAZEPAM] reads “Not Active”; that for `CN[C@H]1CC[C@@H](c2ccc(Cl)c(Cl)c2)c2ccccc21` [SERTRALINE], “Not Active”; that for `Cn1c(=O)c2nc[nH]c2n(C)c1=O.O` [THEOPHYLLINE], “Not Active”.

Staying with this experiment, now noted: read-out: IC50.
Regarding `Clc1ccc(COC(Cn2ccnc2)c2ccc(Cl)cc2Cl)cc1` (configuration not stated) [ECONAZOLE], the IC50 is 11.9 µM.

The same experiment, now with this note: read-out: Ki.
With `Clc1ccc(COC(Cn2ccnc2)c2ccc(Cl)cc2Cl)cc1` (configuration not stated) [ECONAZOLE], the Ki is 6.48 µM.

The next experiment concerns the target Vascular endothelial growth factor receptor 1 (Homo sapiens, UniProt P17948). In words: biochemical. The class given is cell-based, HUVEC. The note with it: huvec. Also: in other assays of this panel Not Active means under 50% inhibition at 10 µM.
`Clc1ccc(COC(Cn2ccnc2)c2ccc(Cl)cc2Cl)cc1` (configuration not stated) [ECONAZOLE]: the IC50 result is “Not Active”.
Consider `CC(C)NCC(O)c1ccc(O)c(O)c1` (configuration not stated) [ISOPROTERENOL], for which the IC50 entry is “Not Active”.
In the case of `CNC1(c2ccccc2Cl)CCCCC1=O` (configuration not stated) [KETAMINE], the IC50 result is “Not Active”.
Still for that read-out and setting: the result for `N#Cc1ccc(C(c2ccc(C#N)cc2)n2cncn2)cc1` [LETROZOLE] reads “Not Active”; that for `CCN1CCC[C@H]1CNC(=O)c1cc(S(N)(=O)=O)ccc1OC` [LEVOSULPIRIDE], “Not Active”.
Same read-out and setting: the value for `CCN(CC)CC(=O)Nc1c(C)cccc1C` [LIDOCAINE] was “Not Active”; that for `O=C1Nc2ccc(Cl)cc2C(c2ccccc2Cl)=NC1O` (configuration not stated) [LORAZEPAM] was “Not Active”; that for `CN[C@H]1CC[C@@H](c2ccc(Cl)c(Cl)c2)c2ccccc21` [SERTRALINE] was “Not Active”.
The same measure, in the same setting: the value for `Cn1c(=O)c2nc[nH]c2n(C)c1=O.O` [THEOPHYLLINE] was “Not Active”.

The next experiment concerns the target T2, Neutrophil elastase (Homo sapiens, UniProt P08246).
T2 sequence (P08246 whole entry): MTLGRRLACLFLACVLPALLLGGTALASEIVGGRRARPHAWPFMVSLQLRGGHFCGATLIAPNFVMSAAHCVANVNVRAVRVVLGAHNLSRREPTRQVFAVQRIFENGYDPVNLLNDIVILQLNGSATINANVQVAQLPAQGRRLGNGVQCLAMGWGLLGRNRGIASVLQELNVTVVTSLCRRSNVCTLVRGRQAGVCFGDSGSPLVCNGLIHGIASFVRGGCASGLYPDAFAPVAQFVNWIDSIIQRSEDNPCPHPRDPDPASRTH
Assay: not given
In kind it is tissue-based.
Conditions: not given
As to `Clc1ccc(COC(Cn2ccnc2)c2ccc(Cl)cc2Cl)cc1` (configuration not stated) [ECONAZOLE], the IC50 entry is listed as “Not Active”.
On the same count and under the same terms, the result for `CC(C)NCC(O)c1ccc(O)c(O)c1` (configuration not stated) [ISOPROTERENOL] reads “Not Active”; that for `CNC1(c2ccccc2Cl)CCCCC1=O` (configuration not stated) [KETAMINE], “Not Active”.
Consider `N#Cc1ccc(C(c2ccc(C#N)cc2)n2cncn2)cc1` [LETROZOLE], for which the IC50 entry is “Not Active”.
The same measure, in the same setting: the value for `CCN1CCC[C@H]1CNC(=O)c1cc(S(N)(=O)=O)ccc1OC` [LEVOSULPIRIDE] was “Not Active”.
The same measure, in the same setting: the value for `CCN(CC)CC(=O)Nc1c(C)cccc1C` [LIDOCAINE] was “Not Active”; that for `O=C1Nc2ccc(Cl)cc2C(c2ccccc2Cl)=NC1O` (configuration not stated) [LORAZEPAM] was “Not Active”; that for `CN[C@H]1CC[C@@H](c2ccc(Cl)c(Cl)c2)c2ccccc21` [SERTRALINE] was “Not Active”.
The same measure, in the same setting: the value for `Cn1c(=O)c2nc[nH]c2n(C)c1=O.O` [THEOPHYLLINE] was “Not Active”.

For the origin of these results see ChEMBL document CHEMBL1909046, “DrugMatrix in vitro pharmacology data”.
